Measured values reported in ChEMBL document CHEMBL1909046, “DrugMatrix in vitro pharmacology data”.

target: Matrix metalloproteinase-9 (Homo sapiens, UniProt P14780); assay: not given; type: cell-based; conditions: not given;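 note: inhibition of isolated MMP-9 enzyme activity toward a synthetic peptide substrate, from the DrugMatrix protease screening panel; in other assays of this panel Not Active means under 50% inhibition at 10 µM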
Sequence (P14780 whole entry): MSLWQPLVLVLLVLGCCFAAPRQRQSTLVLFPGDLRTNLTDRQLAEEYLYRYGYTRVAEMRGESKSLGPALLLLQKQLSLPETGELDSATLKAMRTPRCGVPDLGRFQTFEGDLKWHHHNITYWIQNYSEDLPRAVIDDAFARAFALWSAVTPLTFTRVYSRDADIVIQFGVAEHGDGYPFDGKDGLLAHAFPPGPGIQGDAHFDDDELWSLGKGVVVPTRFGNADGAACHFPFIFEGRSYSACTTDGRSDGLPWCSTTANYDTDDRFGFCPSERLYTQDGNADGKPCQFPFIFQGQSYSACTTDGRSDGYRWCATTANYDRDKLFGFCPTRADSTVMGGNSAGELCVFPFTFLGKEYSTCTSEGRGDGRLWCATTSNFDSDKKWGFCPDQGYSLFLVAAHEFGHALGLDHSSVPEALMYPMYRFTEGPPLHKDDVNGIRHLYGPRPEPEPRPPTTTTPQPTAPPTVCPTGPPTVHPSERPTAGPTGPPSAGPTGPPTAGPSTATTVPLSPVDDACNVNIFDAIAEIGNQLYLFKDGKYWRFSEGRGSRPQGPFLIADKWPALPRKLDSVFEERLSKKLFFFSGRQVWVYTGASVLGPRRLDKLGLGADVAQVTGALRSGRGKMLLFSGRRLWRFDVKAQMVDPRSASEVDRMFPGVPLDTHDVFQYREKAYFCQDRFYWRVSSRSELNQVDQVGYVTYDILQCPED

| SMILES | IC50 |
| --- | --- |
| CC(C)[C@H](N)C(=O)OCCOCn1cnc2c(=O)nc(N)[nH]c21 [VALACYCLOVIR] | Not Active |
| COC(=O)[C@@H]1[C@H]2C[C@H]3c4[nH]c5ccccc5c4CCN3C[C@@H]2CC[C@@H]1O [YOHIMBINE] | Not Active |
| COc1ccc(C(CN(C)C)C2(O)CCCCC2)cc1 (stereo not drawn) [VENLAFAXINE] | Not Active |
| CN(N=O)C(=O)N[C@@H](C=O)[C@@H](O)[C@H](O)[C@H](O)CO [STREPTOZOCIN] | Not Active |

target: T1, Muscarinic acetylcholine receptor M2 (Homo sapiens, UniProt P08172); assay: not given; type: cell membranes, CHO-K1, Membrane; conditions: cho-k1; note: in other assays of this panel Not Active means under 50% inhibition at 10 µM
T1 sequence (P08172 whole entry): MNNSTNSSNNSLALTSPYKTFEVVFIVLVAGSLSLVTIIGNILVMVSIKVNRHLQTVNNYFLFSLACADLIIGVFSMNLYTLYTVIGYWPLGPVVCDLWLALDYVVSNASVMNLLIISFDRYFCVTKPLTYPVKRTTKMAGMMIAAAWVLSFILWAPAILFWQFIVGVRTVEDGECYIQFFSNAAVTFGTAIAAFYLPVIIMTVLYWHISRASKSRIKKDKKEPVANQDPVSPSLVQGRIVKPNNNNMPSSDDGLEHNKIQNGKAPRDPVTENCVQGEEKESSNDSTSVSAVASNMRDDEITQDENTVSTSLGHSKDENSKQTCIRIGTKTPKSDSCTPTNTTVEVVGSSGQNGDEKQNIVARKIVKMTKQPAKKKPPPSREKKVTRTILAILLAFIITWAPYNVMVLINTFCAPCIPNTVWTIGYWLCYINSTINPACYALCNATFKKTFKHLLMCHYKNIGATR

| SMILES | IC50 |
| --- | --- |
| CC(C)[C@H](N)C(=O)OCCOCn1cnc2c(=O)nc(N)[nH]c21 [VALACYCLOVIR] | Not Active |
| COC(=O)[C@@H]1[C@H]2C[C@H]3c4[nH]c5ccccc5c4CCN3C[C@@H]2CC[C@@H]1O [YOHIMBINE] | Not Active |
| COc1ccc(C(CN(C)C)C2(O)CCCCC2)cc1 (stereo not drawn) [VENLAFAXINE] | Not Active |
| CN(N=O)C(=O)N[C@@H](C=O)[C@@H](O)[C@H](O)[C@H](O)CO [STREPTOZOCIN] | Not Active |

target: Tyrosine-protein kinase Lck (Homo sapiens, UniProt P06239); assay: DRUGMATRIX: Protein Tyrosine Kinase, LCK enzyme inhibition (substrate: Poly(Glu:Tyr)); type: cell-based, Insect cells; conditions: insect cells; Not Active = under 50% inhibition at 10 µM
Sequence (P06239 whole entry): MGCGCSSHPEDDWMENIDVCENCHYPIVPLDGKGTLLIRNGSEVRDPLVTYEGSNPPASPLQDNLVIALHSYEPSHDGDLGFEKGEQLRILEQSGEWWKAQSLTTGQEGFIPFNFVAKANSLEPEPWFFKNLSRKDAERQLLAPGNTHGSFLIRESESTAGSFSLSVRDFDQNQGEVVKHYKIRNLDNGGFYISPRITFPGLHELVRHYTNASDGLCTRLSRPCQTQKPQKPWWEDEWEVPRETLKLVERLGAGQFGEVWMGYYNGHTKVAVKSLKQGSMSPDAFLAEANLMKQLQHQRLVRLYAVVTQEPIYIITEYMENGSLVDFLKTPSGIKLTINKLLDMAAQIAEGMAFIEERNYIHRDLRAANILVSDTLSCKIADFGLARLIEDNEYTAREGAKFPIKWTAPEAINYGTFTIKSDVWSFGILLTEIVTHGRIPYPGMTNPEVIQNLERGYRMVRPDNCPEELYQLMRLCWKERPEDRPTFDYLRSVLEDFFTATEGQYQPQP

| SMILES | IC50 |
| --- | --- |
| CC(C)[C@H](N)C(=O)OCCOCn1cnc2c(=O)nc(N)[nH]c21 [VALACYCLOVIR] | Not Active |
| COC(=O)[C@@H]1[C@H]2C[C@H]3c4[nH]c5ccccc5c4CCN3C[C@@H]2CC[C@@H]1O [YOHIMBINE] | Not Active |
| COc1ccc(C(CN(C)C)C2(O)CCCCC2)cc1 (stereo not drawn) [VENLAFAXINE] | Not Active |
| CN(N=O)C(=O)N[C@@H](C=O)[C@@H](O)[C@H](O)[C@H](O)CO [STREPTOZOCIN] | Not Active |

target: Carbonic anhydrase 2 (Homo sapiens, UniProt P00918); assay: DRUGMATRIX: Carbonic Anhydrase II enzyme inhibition (substrate: 4-Nitrophenyl acetate (4-NPA)); type: tissue-based, Erythrocyte; conditions: erythrocyte; Not Active = under 50% inhibition at 10 µM

| SMILES | IC50 |
| --- | --- |
| CC(C)[C@H](N)C(=O)OCCOCn1cnc2c(=O)nc(N)[nH]c21 [VALACYCLOVIR] | Not Active |
| COC(=O)[C@@H]1[C@H]2C[C@H]3c4[nH]c5ccccc5c4CCN3C[C@@H]2CC[C@@H]1O [YOHIMBINE] | Not Active |
| COc1ccc(C(CN(C)C)C2(O)CCCCC2)cc1 (stereo not drawn) [VENLAFAXINE] | Not Active |
| CN(N=O)C(=O)N[C@@H](C=O)[C@@H](O)[C@H](O)[C@H](O)CO [STREPTOZOCIN] | Not Active |

test system: not listed separately; assay: DRUGMATRIX: Interleukin IL-1 radioligand binding (ligand: [125I] interleukin 1beta); type: cell membranes, Membrane; conditions: nih3t3; Not Active = under 50% inhibition at 10 µM

| SMILES | IC50 | Ki |
| --- | --- | --- |
| CC(C)[C@H](N)C(=O)OCCOCn1cnc2c(=O)nc(N)[nH]c21 [VALACYCLOVIR] | Not Active | Not Active |
| COC(=O)[C@@H]1[C@H]2C[C@H]3c4[nH]c5ccccc5c4CCN3C[C@@H]2CC[C@@H]1O [YOHIMBINE] | Not Active | Not Active |
| COc1ccc(C(CN(C)C)C2(O)CCCCC2)cc1 (stereo not drawn) [VENLAFAXINE] | Not Active | Not Active |
| CN(N=O)C(=O)N[C@@H](C=O)[C@@H](O)[C@H](O)[C@H](O)CO [STREPTOZOCIN] | Not Active | Not Active |

target: C-C chemokine receptor type 2 (Homo sapiens, UniProt P41597); assay: not given; type: cell membranes, CHO-K1, Membrane; conditions: cho-k1; note: in other assays of this panel Not Active means under 50% inhibition at 10 µM
Sequence (P41597 whole entry): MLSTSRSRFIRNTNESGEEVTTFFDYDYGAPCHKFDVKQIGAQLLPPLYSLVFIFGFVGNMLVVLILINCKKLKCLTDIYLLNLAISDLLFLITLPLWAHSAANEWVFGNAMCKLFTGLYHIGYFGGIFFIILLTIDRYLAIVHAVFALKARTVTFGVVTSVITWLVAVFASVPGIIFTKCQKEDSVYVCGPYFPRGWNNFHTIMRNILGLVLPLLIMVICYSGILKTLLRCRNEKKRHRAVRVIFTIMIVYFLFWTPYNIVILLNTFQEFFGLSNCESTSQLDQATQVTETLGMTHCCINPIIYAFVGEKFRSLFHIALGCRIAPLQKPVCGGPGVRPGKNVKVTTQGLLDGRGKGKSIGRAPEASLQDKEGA

| SMILES | IC50 |
| --- | --- |
| CC(C)[C@H](N)C(=O)OCCOCn1cnc2c(=O)nc(N)[nH]c21 [VALACYCLOVIR] | Not Active |
| COC(=O)[C@@H]1[C@H]2C[C@H]3c4[nH]c5ccccc5c4CCN3C[C@@H]2CC[C@@H]1O [YOHIMBINE] | Not Active |
| COc1ccc(C(CN(C)C)C2(O)CCCCC2)cc1 (stereo not drawn) [VENLAFAXINE] | Not Active |
| CN(N=O)C(=O)N[C@@H](C=O)[C@@H](O)[C@H](O)[C@H](O)CO [STREPTOZOCIN] | Not Active |

test system: not listed separately; assay: DRUGMATRIX: Phosphodiesterase PDE3 enzyme inhibition (substrate: [3H]cAMP + cAMP); type: tissue-based, Homo sapiens; conditions: platelet; Not Active = under 50% inhibition at 10 µM

| SMILES | IC50 | Ki |
| --- | --- | --- |
| CC(C)[C@H](N)C(=O)OCCOCn1cnc2c(=O)nc(N)[nH]c21 [VALACYCLOVIR] | Not Active | Not Active |
| COC(=O)[C@@H]1[C@H]2C[C@H]3c4[nH]c5ccccc5c4CCN3C[C@@H]2CC[C@@H]1O [YOHIMBINE] | Not Active | Not Active |
| COc1ccc(C(CN(C)C)C2(O)CCCCC2)cc1 (stereo not drawn) [VENLAFAXINE] | Not Active | Not Active |
| CN(N=O)C(=O)N[C@@H](C=O)[C@@H](O)[C@H](O)[C@H](O)CO [STREPTOZOCIN] | Not Active | Not Active |

target: T2, Angiotensin-converting enzyme (Oryctolagus cuniculus, UniProt P12822); assay: biochemical; type: tissue-based, Lung; conditions: not given;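 note: enzymatic inhibition of angiotensin-converting enzyme measured with FAPGG as the substrate; in other assays of this panel Not Active means under 50% inhibition at 10 µM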
T2 sequence (P12822 whole entry): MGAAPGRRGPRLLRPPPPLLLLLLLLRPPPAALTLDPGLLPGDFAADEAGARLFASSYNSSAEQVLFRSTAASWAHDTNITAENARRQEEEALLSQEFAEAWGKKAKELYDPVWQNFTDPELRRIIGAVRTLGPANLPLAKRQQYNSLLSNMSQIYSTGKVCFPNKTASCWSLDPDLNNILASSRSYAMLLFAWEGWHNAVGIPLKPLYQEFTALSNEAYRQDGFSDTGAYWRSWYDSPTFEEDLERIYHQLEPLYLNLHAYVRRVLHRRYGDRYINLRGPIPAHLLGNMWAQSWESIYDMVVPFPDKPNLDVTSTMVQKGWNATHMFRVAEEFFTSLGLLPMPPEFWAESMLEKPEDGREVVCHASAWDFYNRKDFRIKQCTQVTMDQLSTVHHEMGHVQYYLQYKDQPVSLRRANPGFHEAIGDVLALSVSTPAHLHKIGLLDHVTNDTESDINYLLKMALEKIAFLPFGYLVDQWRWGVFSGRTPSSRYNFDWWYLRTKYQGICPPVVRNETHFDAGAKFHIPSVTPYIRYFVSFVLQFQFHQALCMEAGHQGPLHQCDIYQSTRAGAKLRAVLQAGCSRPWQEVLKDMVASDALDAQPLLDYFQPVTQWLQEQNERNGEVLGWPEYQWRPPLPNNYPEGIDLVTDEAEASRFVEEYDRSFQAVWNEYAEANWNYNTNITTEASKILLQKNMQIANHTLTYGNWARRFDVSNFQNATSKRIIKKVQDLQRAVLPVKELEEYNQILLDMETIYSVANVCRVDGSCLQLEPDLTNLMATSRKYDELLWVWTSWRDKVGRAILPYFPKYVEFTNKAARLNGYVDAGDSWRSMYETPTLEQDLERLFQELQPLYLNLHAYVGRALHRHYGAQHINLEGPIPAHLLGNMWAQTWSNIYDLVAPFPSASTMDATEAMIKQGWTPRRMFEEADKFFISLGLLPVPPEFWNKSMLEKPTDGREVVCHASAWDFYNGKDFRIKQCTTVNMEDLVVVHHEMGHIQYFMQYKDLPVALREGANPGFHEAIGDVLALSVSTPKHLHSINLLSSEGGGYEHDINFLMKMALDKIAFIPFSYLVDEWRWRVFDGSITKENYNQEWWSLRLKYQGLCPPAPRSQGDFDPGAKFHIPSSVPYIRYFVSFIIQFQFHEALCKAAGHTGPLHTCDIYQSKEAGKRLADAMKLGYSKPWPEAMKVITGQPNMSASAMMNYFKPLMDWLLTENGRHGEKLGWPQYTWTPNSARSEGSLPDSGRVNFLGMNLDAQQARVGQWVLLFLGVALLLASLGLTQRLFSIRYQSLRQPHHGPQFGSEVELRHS

| SMILES | IC50 |
| --- | --- |
| CC(C)[C@H](N)C(=O)OCCOCn1cnc2c(=O)nc(N)[nH]c21 [VALACYCLOVIR] | Not Active |
| COC(=O)[C@@H]1[C@H]2C[C@H]3c4[nH]c5ccccc5c4CCN3C[C@@H]2CC[C@@H]1O [YOHIMBINE] | Not Active |
| COc1ccc(C(CN(C)C)C2(O)CCCCC2)cc1 (stereo not drawn) [VENLAFAXINE] | Not Active |
| CN(N=O)C(=O)N[C@@H](C=O)[C@@H](O)[C@H](O)[C@H](O)CO [STREPTOZOCIN] | Not Active |

target: 5-hydroxytryptamine receptor 4 (Cavia porcellus, UniProt O70528); assay: not given; type: cell membranes, Dunkin-Hartley, Striatum, Membrane; conditions: not given; note: in other assays of this panel Not Active means under 50% inhibition at 10 µM
Sequence (O70528 whole entry): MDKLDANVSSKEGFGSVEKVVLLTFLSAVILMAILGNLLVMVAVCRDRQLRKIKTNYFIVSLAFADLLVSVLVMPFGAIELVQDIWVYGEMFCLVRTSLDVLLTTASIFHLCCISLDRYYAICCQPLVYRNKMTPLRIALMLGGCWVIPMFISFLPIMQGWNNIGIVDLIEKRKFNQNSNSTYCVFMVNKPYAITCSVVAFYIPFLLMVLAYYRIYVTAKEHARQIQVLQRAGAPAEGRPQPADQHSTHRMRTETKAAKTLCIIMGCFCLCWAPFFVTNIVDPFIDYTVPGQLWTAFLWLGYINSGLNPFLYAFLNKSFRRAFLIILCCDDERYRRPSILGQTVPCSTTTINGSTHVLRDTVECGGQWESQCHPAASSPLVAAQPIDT

| SMILES | IC50 |
| --- | --- |
| CC(C)[C@H](N)C(=O)OCCOCn1cnc2c(=O)nc(N)[nH]c21 [VALACYCLOVIR] | Not Active |
| COC(=O)[C@@H]1[C@H]2C[C@H]3c4[nH]c5ccccc5c4CCN3C[C@@H]2CC[C@@H]1O [YOHIMBINE] | Not Active |
| COc1ccc(C(CN(C)C)C2(O)CCCCC2)cc1 (stereo not drawn) [VENLAFAXINE] | Not Active |
| CN(N=O)C(=O)N[C@@H](C=O)[C@@H](O)[C@H](O)[C@H](O)CO [STREPTOZOCIN] | Not Active |

target: T3, Amine oxidase [flavin-containing] A (Homo sapiens, UniProt P21397); assay: DRUGMATRIX: Monoamine Oxidase MAO-A enzyme inhibition (substrate: Kynuramine); set-up: species or system BTI-TN-5B1-4; conditions: bti-tn-5b1-4; Not Active = under 50% inhibition at 10 µM
T3 sequence (P21397 whole entry): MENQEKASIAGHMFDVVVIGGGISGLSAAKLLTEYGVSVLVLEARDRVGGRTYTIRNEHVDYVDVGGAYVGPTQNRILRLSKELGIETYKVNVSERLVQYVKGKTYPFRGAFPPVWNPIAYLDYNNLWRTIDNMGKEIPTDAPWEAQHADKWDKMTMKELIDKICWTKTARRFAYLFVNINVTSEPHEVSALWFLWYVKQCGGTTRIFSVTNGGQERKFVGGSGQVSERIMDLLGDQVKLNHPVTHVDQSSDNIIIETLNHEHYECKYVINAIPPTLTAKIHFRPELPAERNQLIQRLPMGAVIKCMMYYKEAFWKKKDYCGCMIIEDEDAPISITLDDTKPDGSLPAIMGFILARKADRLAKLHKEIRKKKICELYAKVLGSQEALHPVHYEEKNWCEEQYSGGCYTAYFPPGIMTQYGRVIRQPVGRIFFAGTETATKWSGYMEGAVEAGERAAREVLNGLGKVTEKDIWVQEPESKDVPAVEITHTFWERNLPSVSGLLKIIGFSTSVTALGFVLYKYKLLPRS

| SMILES | IC50 |
| --- | --- |
| CC(C)[C@H](N)C(=O)OCCOCn1cnc2c(=O)nc(N)[nH]c21 [VALACYCLOVIR] | Not Active |
| COC(=O)[C@@H]1[C@H]2C[C@H]3c4[nH]c5ccccc5c4CCN3C[C@@H]2CC[C@@H]1O [YOHIMBINE] | Not Active |
| COc1ccc(C(CN(C)C)C2(O)CCCCC2)cc1 (stereo not drawn) [VENLAFAXINE] | Not Active |
| CN(N=O)C(=O)N[C@@H](C=O)[C@@H](O)[C@H](O)[C@H](O)CO [STREPTOZOCIN] | Not Active |
